This note sets out measurements from ChEMBL document CHEMBL1201862, “PubChem BioAssay data set” (2004).

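Exposure lasted 48 hours, with cells grown in 96-well plates and compounds tested at five concentrations. Here, GI50 denotes the concentration required for 50% inhibition of growth.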 Active and inactive are the calls of the source. Cut-off read from the data, not from the text of the source: active = GI50 up to about 1.1 µM and inactive = higher. A value given as a limit tells only on which side of the number the result lay.

Among the test systems are ACHN; CCRF-CEM; DLD-1; HCC 2998; HCT-15; HL-60; HOP-62; MOLT-4; OVCAR-3; OVCAR-4; OVCAR-5; RXF 393; SK-OV-3; SNB-19; SNB-75; UACC-257; UACC-62; BT-549; MDA-MB-231; NCI/ADR-RES.
What all share (assay): NCI-60 cell line screen, 48 h

As for `c1ccc2c(c1)C1=NCCN1c1ccccc1-2`, the GI50 in the experiment on ACHN is 2.11 µM (inactive); in the experiment with CCRF-CEM, 1.64 µM (inactive); with DLD-1 it was 1.77 µM (inactive); in the experiment with HCC 2998, 4.46 µM (inactive); in the experiment on HCT-15, 3.1 µM; with HL-60, 2.42 µM (inactive). The GI50 is 3.25 µM (inactive) in the experiment with HOP-62; 1.85 µM (inactive) in the experiment with MOLT-4; 2.95 µM (inactive) with OVCAR-3; 2.91 µM (inactive) with OVCAR-4; 3.47 µM (inactive) in the experiment with OVCAR-5; 1.56 µM (inactive) with RXF 393. Further, the GI50 in the experiment on SK-OV-3 was 4.9 µM (inactive); in the experiment on SNB-19, 3.46 µM (inactive); in the experiment on SNB-75, 3.47 µM (inactive); in the experiment with UACC-257, 2.7 µM (inactive); in the experiment with UACC-62 it was 3.37 µM (inactive).

On to `C=C1C(=O)OC2C1CCC(C)C1C=CC(=O)C12C` (centres undefined), for which the GI50 was 1.73 µM (inactive) with ACHN; 1.63 µM (inactive) with BT-549; 1.34 µM (inactive) with CCRF-CEM; 1.89 µM (inactive) in the experiment on DLD-1; 12 µM (inactive) in the experiment on HCC 2998; 1.82 µM in the experiment with HCT-15. The GI50 was 1.41 µM (inactive) in the experiment with HL-60; 15.5 µM (inactive) with HOP-62; 2.19 µM (inactive) in the experiment on MDA-MB-231; 2.46 µM (inactive) in the experiment with MOLT-4; 1.41 µM (inactive) in the experiment on NCI/ADR-RES; 1.22 µM (inactive) in the experiment on OVCAR-3. Further, the GI50 in the experiment on OVCAR-4 was 6.76 µM (inactive); in the experiment with OVCAR-5 it was 4.53 µM (inactive); in the experiment with RXF 393 it was 1.84 µM (inactive); in the experiment on SK-OV-3, 28 µM (inactive); in the experiment with SNB-19, 14.7 µM (inactive); in the experiment on SNB-75, 8.15 µM (inactive). The GI50 with UACC-257 was 1.97 µM (inactive); in the experiment on UACC-62 it was 1.79 µM (inactive).

Consider `COc1ccc(S(=O)(=O)N/N=C/C(=O)O)cc1`, for which the GI50 with ACHN was 354 µM (inactive); in the experiment with BT-549, 284 µM (inactive); in the experiment on CCRF-CEM, 176 µM (inactive); in the experiment with DLD-1 it was > 906 µM (inactive); in the experiment on HCC 2998, 607 µM (inactive); in the experiment on HCT-15, 542 µM. In addition, the GI50 was 185 µM (inactive) in the experiment with HL-60; 678 µM (inactive) in the experiment on HOP-62; 822 µM (inactive) in the experiment on MDA-MB-231; 193 µM (inactive) in the experiment on MOLT-4; 490 µM (inactive) in the experiment with NCI/ADR-RES; 495 µM (inactive) with OVCAR-3. Moreover, the GI50 is 524 µM (inactive) in the experiment with OVCAR-4; 873 µM (inactive) in the experiment on OVCAR-5; 410 µM (inactive) with RXF 393; 971 µM (inactive) in the experiment with SK-OV-3; 706 µM (inactive) in the experiment with SNB-19; 708 µM (inactive) in the experiment on SNB-75. Besides, the figures for the GI50 in the experiment on UACC-257 and in the experiment with UACC-62 were 849 µM (inactive) and 327 µM (inactive), respectively.

With `O=C1CCCC(O)=C1SC1=C(O)CCCC1=O`, the GI50 in the experiment with CCRF-CEM was 71.6 µM (inactive); in the experiment on DLD-1, 35.2 µM (inactive); in the experiment on HCC 2998 it was 70.1 µM (inactive); in the experiment with HCT-15 it was 47.2 µM; with HL-60, > 100 µM (inactive); in the experiment with MOLT-4, > 100 µM (inactive). For the same compound, the GI50 in the experiment with OVCAR-3, in the experiment on OVCAR-4, with OVCAR-5, in the experiment on RXF 393, in the experiment on SK-OV-3 and in the experiment with SNB-19 was > 100 µM (inactive) each time. Further, the GI50 with SNB-75 is 77.4 µM (inactive); with UACC-257 it was > 100 µM (inactive); in the experiment on UACC-62, 46.9 µM (inactive).

With `O=P1(O)c2ccccc2Nc2cc(C(F)(F)F)ccc21`, the GI50 in the experiment with ACHN was > 100 µM (inactive); with BT-549, > 100 µM (inactive); in the experiment with CCRF-CEM, > 100 µM (inactive); in the experiment on DLD-1, > 100 µM (inactive); in the experiment with HCC 2998, > 100 µM (inactive); in the experiment on HCT-15, above 100 µM. The GI50 with HL-60, in the experiment on HOP-62, with MDA-MB-231, in the experiment on MOLT-4, with NCI/ADR-RES and with OVCAR-3 was > 100 µM (inactive) in each case. The GI50 in the experiment on OVCAR-4, with OVCAR-5, with RXF 393, in the experiment with SK-OV-3, in the experiment on SNB-19 and in the experiment on SNB-75 was > 100 µM (inactive) each time. In addition, the GI50 in the experiment with UACC-257 and in the experiment with UACC-62 was > 100 µM (inactive) throughout.

As for `CCOC(=O)C(C)(C)Oc1ccc(/C=C/C(=O)c2ccc(Cl)cc2)cc1`, the GI50 is > 10 µM (inactive) in the experiment with ACHN; 17.2 µM (inactive) in the experiment on CCRF-CEM; 14.1 µM (inactive) in the experiment with DLD-1; > 10 µM (inactive) in the experiment on HCC 2998; 17.2 µM in the experiment on HCT-15; 24.5 µM (inactive) in the experiment on HL-60. The GI50 was 39.4 µM (inactive) in the experiment with HOP-62; 19.6 µM (inactive) with MOLT-4; 16.3 µM (inactive) in the experiment with OVCAR-3; 18.9 µM (inactive) with OVCAR-4; 15.3 µM (inactive) in the experiment on RXF 393; 19.2 µM (inactive) with SNB-19. Further, the GI50 in the experiment with SNB-75 was 15.2 µM (inactive); in the experiment with UACC-257, 18.4 µM (inactive); in the experiment on UACC-62, 20.6 µM (inactive).

As to `CS(=O)(=O)C1S(=O)(=O)OCCOS1(=O)=O`, the GI50 with ACHN, in the experiment on DLD-1, in the experiment with HCC 2998, in the experiment with HL-60, with HOP-62 and in the experiment on MOLT-4 was > 100 µM (inactive) in each case. Besides, the GI50 in the experiment with OVCAR-3, with OVCAR-4, in the experiment on OVCAR-5, in the experiment with RXF 393, in the experiment on SK-OV-3 and with SNB-19 was > 100 µM (inactive) in each case. The GI50 in the experiment on SNB-75, in the experiment with UACC-257 and in the experiment on UACC-62 was > 100 µM (inactive) throughout.

Consider `O=C(CCC/C(CC(=O)c1ccc(Br)cc1)=N\O)Nc1ccccc1`, for which the GI50 in the experiment with ACHN is 96.6 µM (inactive); in the experiment on CCRF-CEM it was 70.3 µM (inactive); in the experiment on DLD-1, 96.4 µM (inactive); with HCC 2998, > 100 µM (inactive); in the experiment on HL-60, 65.2 µM (inactive); in the experiment on HOP-62, > 100 µM (inactive). Moreover, the GI50 in the experiment on MOLT-4 was 24.5 µM (inactive); with OVCAR-3, > 100 µM (inactive); with OVCAR-4, 76.9 µM (inactive); in the experiment on OVCAR-5, 28.2 µM (inactive); with RXF 393, 45.9 µM (inactive); with SNB-19 it was > 100 µM (inactive). For the same compound, the results for the GI50 in the experiment on SNB-75, with UACC-257 and in the experiment with UACC-62 were > 100 µM (inactive), 67.9 µM (inactive) and 46 µM (inactive), respectively.

Consider `O=C(O)C(CS)Nc1c2ccccc2nc2ccccc12` (centres undefined), for which the GI50 is 38.3 µM (inactive) with ACHN; 79.3 µM (inactive) in the experiment with CCRF-CEM; 78.9 µM (inactive) in the experiment with DLD-1; 82 µM (inactive) with HCC 2998; 51.3 µM in the experiment with HCT-15; 80.4 µM (inactive) in the experiment on HL-60. The GI50 is 38.3 µM (inactive) in the experiment with MOLT-4; 49.9 µM (inactive) with OVCAR-3; 19.7 µM (inactive) in the experiment with OVCAR-4; 53.5 µM (inactive) in the experiment on OVCAR-5; > 100 µM (inactive) with RXF 393; > 100 µM (inactive) in the experiment on SK-OV-3. For the same compound, the GI50 in the experiment on SNB-19 is 61.1 µM (inactive); in the experiment on SNB-75, > 100 µM (inactive); with UACC-257, 58.5 µM (inactive).

As to `COc1ccc(Br)c(C(=O)N2CCc3ccccc32)c1N`, the GI50 is 49 µM (inactive) with ACHN; 33.4 µM (inactive) in the experiment with CCRF-CEM; 42.9 µM (inactive) in the experiment with DLD-1; 30 µM (inactive) with HCC 2998; 29.2 µM in the experiment on HCT-15; 40.6 µM (inactive) with HL-60. Besides, the GI50 with HOP-62 was 42.3 µM (inactive); with MOLT-4, 31.3 µM (inactive); in the experiment on OVCAR-3, 27.5 µM (inactive); in the experiment on OVCAR-4, 34.8 µM (inactive); in the experiment with OVCAR-5 it was > 100 µM (inactive); with RXF 393, 55.2 µM (inactive). Moreover, the GI50 in the experiment with SK-OV-3 is 30.5 µM (inactive); in the experiment on SNB-19, 63 µM (inactive); in the experiment with SNB-75, 26.9 µM (inactive); with UACC-257, 29.9 µM (inactive); with UACC-62, 43.8 µM (inactive).

As for `COc1cc(C2c3cc4c(cc3[C@@H](Nc3ccc(C#N)cc3)C3COC(=O)[C@H]23)OCO4)cc(OC)c1O` (some centres undefined), the GI50 was 0.184 µM (active) in the experiment on ACHN; 7.74 µM (inactive) with BT-549; 0.524 µM (active) in the experiment on CCRF-CEM; 1.27 µM (inactive) in the experiment with DLD-1; 0.0693 µM (active) with HCC 2998; 2.31 µM in the experiment on HCT-15. In addition, the GI50 in the experiment on HL-60 is 0.143 µM (active); with HOP-62, 0.592 µM (active); with MDA-MB-231 it was 9.31 µM (inactive); in the experiment with MOLT-4 it was 0.274 µM (active); in the experiment with NCI/ADR-RES it was 3.98 µM (inactive); with OVCAR-3, 14.4 µM (inactive). The GI50 is 3.43 µM (inactive) in the experiment on OVCAR-4; 5.64 µM (inactive) with OVCAR-5; 1.41 µM (inactive) in the experiment with RXF 393; 1.63 µM (inactive) in the experiment on SK-OV-3; 1.39 µM (inactive) with SNB-19; 2.6 µM (inactive) in the experiment with SNB-75. Besides, the GI50 is 7.26 µM (inactive) in the experiment with UACC-257 and 0.962 µM (active) with UACC-62.
